In the CheMixHub viscosity set:

Test: xn = mol fraction of the nth substance listed

CC1CCC(C)O1 (centres undefined) + Brc1ccccc1
viscosity [mPa·s], 101 kPa
Details	x1 = 0.0965	x1 = 0.2006	x1 = 0.3011	x1 = 0.4016	x1 = 0.4921
298.15 K	1.003	0.941	0.8808	0.8196	0.7658
313.15 K	0.833	0.7831	0.7338	0.6848	0.6411

CC1CCCO1 (centres undefined) + Brc1ccccc1
viscosity [mPa·s], 101 kPa
Details	x1 = 0.0991	x1 = 0.1998	x1 = 0.301	x1 = 0.4046	x1 = 0.5029
298.15 K	1.007	0.9516	0.8942	0.8346	0.7773
313.15 K	0.835	0.7895	0.7425	0.6943	0.6477

CC(C)CO + C1CCCCC1
303.15 K, 101.33 kPa
Details	viscosity [mPa·s]
x2 = 0.1485	1.976
x2 = 0.2985	1.513
x2 = 0.4515	1.185
x2 = 0.6051	0.962
x2 = 0.7417	0.839
x2 = 0.8981	0.762

CCOC(=O)CC + C1CCCCC1
viscosity [mPa·s], 101 kPa
Details	298.15 K	308.15 K
x1 = 0.0526	0.835	0.709
x1 = 0.1334	0.767	0.65
x1 = 0.2568	0.686	0.579
x1 = 0.3148	0.656	0.553
x1 = 0.4538	0.603	0.505
x1 = 0.4986	0.59	0.493
x1 = 0.5085	0.588	0.491
x1 = 0.6558	0.561	0.465
x1 = 0.7181	0.556	0.459
x1 = 0.8504	0.556	0.456
x1 = 0.9312	0.564	0.459

Cc1ccccc1O + C1CCCCC1
308.15 K, 101 kPa
Details	viscosity [mPa·s]
x1 = 0.0821	0.8505
x1 = 0.1618	0.9431
x1 = 0.2824	1.146
x1 = 0.3677	1.341
x1 = 0.4418	1.568
x1 = 0.5033	1.708
x1 = 0.5871	2.049
x1 = 0.7934	3.199
x1 = 0.8996	4.104

C=CC(=O)OC + C1CCOC1
viscosity [mPa·s], 101 kPa
Details	293.15 K	298.15 K	303.15 K	308.15 K	313.15 K	318.15 K
x2 = 0.0773	0.4982	0.4567	0.4181	0.3852	0.3553	0.3283
x2 = 0.1554	0.4934	0.454	0.4172	0.3854	0.3561	0.3294
x2 = 0.2064	0.4907	0.4527	0.4169	0.3858	0.3569	0.3304
x2 = 0.2545	0.4885	0.4517	0.417	0.3865	0.3579	0.3315
x2 = 0.3215	0.486	0.4508	0.4174	0.3878	0.3596	0.3333
x2 = 0.3989	0.4838	0.4505	0.4186	0.3898	0.362	0.3358
x2 = 0.4655	0.4826	0.4507	0.4201	0.392	0.3644	0.3382
x2 = 0.53	0.4819	0.4515	0.422	0.3945	0.3671	0.3409
x2 = 0.6023	0.4819	0.453	0.4246	0.3977	0.3706	0.3442
x2 = 0.6834	0.4826	0.4553	0.4282	0.4018	0.3748	0.3483
x2 = 0.7632	0.4841	0.4583	0.4323	0.4064	0.3795	0.3528
x2 = 0.8468	0.4865	0.4622	0.4372	0.4118	0.3849	0.3579
x2 = 0.9316	0.4899	0.467	0.4429	0.4177	0.3909	0.3634

C=CC(=O)OCCCC + C1CCOC1
viscosity [mPa·s], 101 kPa
Details	293.15 K	298.15 K	303.15 K	308.15 K	313.15 K	318.15 K
x2 = 0.0712	0.8609	0.8036	0.7505	0.7019	0.6569	0.6143
x2 = 0.1406	0.8246	0.7708	0.721	0.6751	0.6321	0.5913
x2 = 0.208	0.7908	0.7403	0.6935	0.65	0.609	0.5698
x2 = 0.2779	0.7572	0.71	0.6661	0.6249	0.5858	0.5482
x2 = 0.3685	0.7159	0.6727	0.6323	0.594	0.5571	0.5213
x2 = 0.4339	0.6875	0.6471	0.609	0.5727	0.5374	0.5028
x2 = 0.4996	0.6603	0.6225	0.5867	0.5522	0.5182	0.4848
x2 = 0.5642	0.6347	0.5995	0.5657	0.5328	0.5002	0.4677
x2 = 0.6426	0.6053	0.5729	0.5415	0.5104	0.4792	0.4478
x2 = 0.7208	0.5778	0.548	0.5187	0.4893	0.4592	0.4288
x2 = 0.7956	0.553	0.5256	0.4981	0.4701	0.4411	0.4115
x2 = 0.8642	0.5316	0.5063	0.4803	0.4534	0.4253	0.3964
x2 = 0.9322	0.5117	0.4882	0.4637	0.4378	0.4103	0.3819

CC(C)CO + C1COCCO1
298.15 K, 101 kPa
Details	viscosity [mPa·s]
x2 = 0.0416	2.787
x2 = 0.125	2.14
x2 = 0.2354	1.668
x2 = 0.3104	1.489
x2 = 0.4165	1.296
x2 = 0.4739	1.231
x2 = 0.5066	1.206
x2 = 0.5756	1.153
x2 = 0.5788	1.144
x2 = 0.7141	1.107
x2 = 0.7411	1.098
x2 = 0.7859	1.107
x2 = 0.832	1.099
x2 = 0.8845	1.109
x2 = 0.9419	1.131

CCCCCOC(C)=O + C1COCCO1
303.15 K, 101.3 kPa
Details	viscosity [mPa·s]
x2 = 0.0981	0.7721
x2 = 0.2981	0.8134
x2 = 0.505	0.8719
x2 = 0.7018	0.9452
x2 = 0.9003	1.037

Cc1ccccc1O + C1COCCO1
308.15 K, 101 kPa
Details	viscosity [mPa·s]
x2 = 0.1	4.947
x2 = 0.2	4.855
x2 = 0.3	4.267
x2 = 0.4	3.498
x2 = 0.5	2.795
x2 = 0.6	2.208
x2 = 0.7	1.764
x2 = 0.8	1.382
x2 = 0.9	1.163

CCCCCOC(C)=O + C=Cc1ccccc1
Details	viscosity [mPa·s]
298.15 K, 101 kPa, x2 = 0.103	0.802

CCn1cc[n+](C)c1.O=S(=O)([O-])C(F)(F)F + CC1COC(=O)O1
101 kPa
Details	viscosity [mPa·s]
298.15 K, x1 = 0.6987	21.65
303.15 K, x1 = 0.0999	3.915
303.15 K, x1 = 0.1999	5.315
303.15 K, x1 = 0.6987	18.45
308.15 K, x1 = 0.1999	4.575
313.15 K, x1 = 0.3998	6.675
318.15 K, x1 = 0.8998	17.65
323.15 K, x1 = 0.0999	2.425
323.15 K, x1 = 0.3998	5.115

Cc1ccccc1O + CC12CCC(CC1)C(C)(C)O2
viscosity [mPa·s], 101 kPa
Details	x2 = 0.0644	x2 = 0.1341	x2 = 0.2098	x2 = 0.2923	x2 = 0.3825	x2 = 0.4817	x2 = 0.5911	x2 = 0.7125	x2 = 0.8479
303.15 K	6.716	7.057	7.387	7.431	7.201	6.63	5.917	4.949	3.732
308.15 K	5.48	5.76	5.997	6.081	5.929	5.628	5.058	4.201	3.201
313.15 K	4.569	4.81	4.944	5.041	5.032	4.696	4.12	3.359	2.48
